Molecular target: T1, IκB kinase alpha (IKKα) (Homo sapiens, UniProt O15111)
T1 construct: gene CHUK
T1 sequence (O15111 1-745): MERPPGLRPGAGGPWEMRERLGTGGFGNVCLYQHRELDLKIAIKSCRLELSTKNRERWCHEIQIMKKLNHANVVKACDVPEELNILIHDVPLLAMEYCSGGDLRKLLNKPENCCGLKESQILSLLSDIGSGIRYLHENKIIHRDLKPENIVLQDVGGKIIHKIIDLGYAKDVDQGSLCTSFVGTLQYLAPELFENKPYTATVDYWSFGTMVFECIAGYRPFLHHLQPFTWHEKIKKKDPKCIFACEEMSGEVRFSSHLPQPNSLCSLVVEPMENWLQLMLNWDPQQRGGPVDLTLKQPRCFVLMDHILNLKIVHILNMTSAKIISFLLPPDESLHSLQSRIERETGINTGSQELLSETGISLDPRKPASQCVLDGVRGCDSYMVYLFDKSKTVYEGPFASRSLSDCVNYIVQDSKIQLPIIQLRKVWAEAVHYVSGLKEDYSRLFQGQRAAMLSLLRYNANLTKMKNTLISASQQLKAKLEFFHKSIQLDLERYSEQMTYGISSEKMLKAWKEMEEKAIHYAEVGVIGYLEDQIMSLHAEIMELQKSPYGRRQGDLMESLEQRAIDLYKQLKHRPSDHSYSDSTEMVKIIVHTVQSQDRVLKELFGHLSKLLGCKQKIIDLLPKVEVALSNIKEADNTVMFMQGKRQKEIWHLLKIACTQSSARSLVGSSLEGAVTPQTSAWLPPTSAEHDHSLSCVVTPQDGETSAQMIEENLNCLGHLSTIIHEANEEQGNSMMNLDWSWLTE
Test: target engagement in PC3m cells by pharmacodynamic markers (p100 phosphorylation; RelB nuclear translocation), data not shown
Assay type: cell-based

Substance: SU1644
- IC50: 0.05 µM
